Source: patent US8178506B2, “Oligomeric compounds and compositions for use in modulation of small non-coding RNAs” (Regulus Therapeutics Inc., priority 2003, dated 2012)
In the oligonucleotide strings, read from the 5' end, every base follows the letter of its sugar. An asterisk marks phosphorothioate; unmarked linkages are phosphodiester. Other units and linkages are bracketed, terminal groups are in braces. A string of capitals states the bases alone. e = 2'-O-(2-methoxyethyl) (MOE); [5mC] = 5-methylcytosine; d = 2'-deoxy (DNA)

Tests used:
follistatin = assay: Follistatin mRNA expression in HepG2 cells; assay type: cell-based, human; settings: for Follistatin mRNA expression: Experiment 2, insulin treated: HepG2 cells transfected with oligomeric compound, 1 nM insulin for four hours, UTC + 1 nM insulin = 100
Procedure: (§1) Approximately 28 hours after transfection, the cells are subjected to serum starvation for a period of 12 to 16 hours, using serum-free growth medium. Following serum starvation, cells are treated with 1 nM insulin (insulin-treated) or are left untreated (basal conditions) for approximately four hours. At the same time, untreated control cells in both plates are treated with 100 nM insulin to determine the maximal insulin response. Following insulin treatment (forty-eight hours after transfection), total RNA is harvested from all samples, and the amount of total RNA from each sample is determined using a Ribogreen assay (Invitrogen Corporation, Carlsbad, Calif.). Real-time PCR is performed on the total RNA samples using primer/probe sets for three insulin responsive genes: insulin-like growth factor binding protein-1 (IGFBP-1), cytosolic PEPCK (PEPCK-C), and follistatin. Gene expression levels obtained by real-time PCR are normalized for total RNA content in the samples.
(§2) Oligomeric compounds of the present invention were tested for their effects on insulin signaling in HepG2 cells. HepG2 cells were plated at 7500 cells/well in collagen coated 96-well plates. The following day, cells were transfected with oligomeric compounds targeting miRNAs using 100 nM oligomeric compound in LIPOFECTIN™ (Invitrogen Corporation, Carlsbad, Calif.) in two 96-well plates. The oligomeric compounds were tested in triplicate on each 96-well plate, except for positive and negative controls, which were measured up to six times per plate. At the end of transfection, the transfection medium was replaced by regular growth medium. Twenty-eight hours post-transfection, the cells were subjected to overnight (sixteen to eighteen hours) serum starvation using serum free growth medium. Forty-four hours post-transfection, the cells in the transfected wells were treated with either no insulin (“basal” Experiment 1, for identification of insulin-mimetic compounds) or with 1 nM insulin (“insulin treated” Experiment 2, for identification of insulin sensitizers) for four hours. At the same time, in both plates, cells in some of the un-transfected control wells are treated with 100 nM insulin to determine maximal insulin response. At the end of the insulin or no-insulin treatment (forty-eight hours post-transfection), total RNA is isolated from both the basal and insulin treated (1 nM) 96-well plates, and the amount of total RNA from each sample is determined using a Ribogreen assay (Molecular Probes, Eugene, Oreg.). Real-time PCR is performed on all the total RNA samples using primer/probe sets for three insulin responsive genes: PEPCK-c, IGFBP-1 and follistatin. Expression levels for each gene are normalized to total RNA, and values+standard deviation are expressed relative to the transfectant only untreated control (UTC) and negative control compounds.
(§3) Protocols for treatment of HepG2 cells and transfection of oligomeric compounds are as described in Example 18. Also as described in Example 18, forty-four hours post-transfection, the cells in the transfected wells were treated with either no insulin (“basal” Experiment 3 (below), for identification of insulin-mimetic compounds) or with 1 nM insulin (“insulin treated” Experiment 4 (below), for identification of insulin sensitizers) for four hours. At the same time, in both plates, cells in some of the un-transfected control wells are treated with 100 nM insulin to determine maximal insulin response. At the end of the insulin or no-insulin treatment (forty-eight hours post-transfection), total RNA is isolated from both the basal and insulin treated (1 nM) 96-well plates, and the amount of total RNA from each sample is determined using a Ribogreen assay (Molecular Probes, Eugene, Oreg.).

IGFBP-1 = IGFBP-1 mRNA expression in HepG2 cells; assay type: cell-based, human; settings: for IGFBP1 mRNA expression: Experiment 2, insulin treated: HepG2 cells transfected with oligomeric compound, 1 nM insulin for four hours, UTC + 1 nM insulin = 100
Procedure: as §1, §2, §3

PEPCK-c = PEPCK-c mRNA expression in HepG2 cells; assay type: cell-based, human; settings: for PEPCKc mRNA expression: Experiment 2, insulin treated: HepG2 cells transfected with oligomeric compound, 1 nM insulin for four hours, UTC + 1 nM insulin = 100
Procedure: as §1, §2, §3

[1] = system: BJ, B16-F10, T47D, T47Dp53 and HeLa cells; assay: Cell cycle assay (propidium iodide flow cytometry), cell line panel; assay type: cell-based; settings: 150 nM oligomeric compound, 4.5 μg/ml LIPOFECTIN, after 72 hours, propidium iodide flow cytometry
T47D cells = assay: Caspase-3 activity assay (apoptosis) in T47D cells; settings: T47D cells, 200 nM oligomeric compound, 48 hours; experiment of Table 12
HeLa cells = assay: Cell cycle assay in HeLa cells; assay type: cell-based, human; settings: HeLa cells, 150 nM oligomeric compound
[2] = Experiment 3, basal (no insulin), HepG2 cells, 48 hours post-transfection
[3] = Experiment 4, insulin-sensitization: HepG2 cells treated with 1 nM insulin for four hours, 48 h post-transfection, mRNA by real-time PCR
[4] = 24 hours, relative to untreated control (UTC = 100)
[5] = 48 hours after treatment, relative to untreated control (UTC=100)

Substance | Follistatin (% UTC) (follistatin; [2]) | Follistatin (% UTC) (follistatin; [3]) | IGFBP-1 (% UTC) (IGFBP-1; [2]) | IGFBP-1 (% UTC) (IGFBP-1; [3]) | PEPCK-c (% UTC) (PEPCK-c; [2]) | PEPCK-c (% UTC) (PEPCK-c; [3]) | Follistatin mRNA expression (follistatin) | IGFBP1 mRNA expression (IGFBP-1) | PEPCKc mRNA expression (PEPCK-c) | also measured
186515 (antisense eA*eG*eG*eT*eA*dG*d[5mC]*dT*dT*dT*dG*dA*dT*dT*dA*eT*eG*eT*eA*eA) [compound 186515] | 67 | 39 | 193 | 105 | 70 | 40 |  |  |  | 
328343 (eT*e[5mC]*eG*eA*eT*dT*dT*dA*dG*dT*dT*dA*dT*d[5mC]*dT*eA*eA*eA*eA*eA) [compound 328343] |  |  |  |  |  |  | 139 | 135 | 69 | 
328358 (eA*eG*eT*eT*eT*dG*dA*dA*dG*dT*dG*dT*d[5mC]*dA*d[5mC]*eA*eG*e[5mC]*eG*e[5mC]) [compound 328358] |  |  |  |  |  |  | 106 | 165 | 93 | 
328367 (eA*e[5mC]*eT*eG*eA*dG*dG*dG*d[5mC]*dG*dG*d[5mC]*d[5mC]*d[5mC]*dG*eG*eG*e[5mC]*eA*eG) [compound 328367] |  |  |  |  |  |  | 107 | 141 | 85 | 
328644 (eG*eA*e[5mC]*eA*eA*dG*dG*dT*dG*dG*dG*dA*dG*d[5mC]*dG*eA*eG*eT*eG*eG; antisense) [compound 328644] |  |  |  |  |  |  |  |  |  | G1 (percentage of cells in phase of the cell cycle) [1]: 58.4%; G2/M (percentage of cells in phase of the cell cycle) [1]: 14%; S (percentage of cells in phase of the cell cycle) [1]: 27.6%; SubG1 (percentage of cells in phase of the cell cycle) [1]: 7.2%; aneuploid (percentage of cells) [1]: 17.5%; Fold Increase over UTC (caspase-3 activity, apoptosis) (T47D cells): 0.7 fold; % cells aneuploid (HeLa cells; [4]): 68%; % cells in cell cycle phase G1 (HeLa cells; [4]): 113%; % cells in cell cycle phase G2/M (HeLa cells; [4]): 109%; % cells in cell cycle phase S (HeLa cells; [4]): 84%; % cells in cell cycle phase subG1 (HeLa cells; [4]): 71%; % cells in cell cycle phase: G1 (HeLa cells; [5]): 101%; % cells in cell cycle phase: G2/M (HeLa cells; [5]): 98%; % cells in cell cycle phase: S (HeLa cells; [5]): 101%; % cells in cell cycle phase: aneuploid (HeLa cells; [5]): 82%; % cells in cell cycle phase: subG1 (HeLa cells; [5]): 52%
328702 (eT*eG*eA*e[5mC]*e[5mC]*dA*d[5mC]*dA*dA*dA*dA*dT*dT*d[5mC]*d[5mC]*eT*eT*eA*e[5mC]*eA; antisense) [compound 328702] |  |  |  |  |  |  | 88 | 83 | 96 | 
328761 (antisense eG*e[5mC]*eA*eG*eG*d[5mC]*dT*dA*dA*dA*dA*dG*dA*dA*dA*eT*eA*eA*eG*e[5mC]) [compound 328761] | 91 | 98 | 118 | 93 | 48 | 55 | 53 | 193 | 64 | 
328764 (antisense eA*eG*eA*eT*eG*dT*dT*dT*d[5mC]*dT*dG*dG*d[5mC]*d[5mC]*dT*eG*e[5mC]*eG*eA*eG) [compound 328764] |  |  |  |  |  |  | 128 | 145 | 68 | 
328765 (antisense eG*eA*e[5mC]*eA*eA*dA*d[5mC]*dT*d[5mC]*dA*dG*d[5mC]*dT*dA*dT*eA*eT*eT*eG*eT) [compound 328765] | 87 | 97 | 88 | 94 | 93 | 73 |  |  |  | 
328769 (antisense eA*eG*eG*e[5mC]*eT*dG*dG*dA*d[5mC]*dA*dG*d[5mC]*dA*d[5mC]*dA*e[5mC]*eA*eA*e[5mC]*e[5mC]) [compound 328769] |  |  |  |  |  |  | 84 | 110 | 100 | 
